The data set can be described thus: Particle diameter by DLS and TEM. Type of data set: physicochemical. The conditions noted are these: 20 µM NPs in H2O:DMSO 99:1, before interaction with NE. From the text:
Submitted to Advanced Science
We obtained hepatocellular carcinoma (TCGA-LIHC) transcriptomic data from the Cancer Genome Atlas (TCGA) database (https://portal.gdc.cancer.gov/), quantified as transcripts per million (TPM). Tumor samples with complete clinical annotations (overall survival (OS), age, stage, etc.) were retained for further analysis.
Another HCC gene expression profile under the accession number E-TABM-36, containing 44 samples with available survival prognosis information, was obtained from the EBI Array database (https://www.ebi.ac.uk/arrayexpress/) as a validation set. […]
after being further diluted with DMSO (995, 795, 595, 395, 195, 95, 15, and 0 μL). To confirm the generation of NPs, measurements were made of the ultraviolet-visible (UV-vis) absorbance (UV-2600i, Japan) at approximately 410 nm and the fluorescence spectra (Cary 5000, Malaysia) at approximately 635 nm of solutions with different water contents. […]
temperature. […] In addition, the variation of fluorescence emission spectra of PpIX by […]
Pyrene molecules were employed as an indicator to determine the critical aggregation concentration (CAC) of nanoparticles by comparing the fluorescence of their third and first emissive peaks. […] The fluorescence spectra of pyrene (excitation, 335 nm) in different NPs dilutions were recorded. […]

Consider PpIX-GFFVLK-EAIPMSIPPEVK [FTP-NPs], for which the diameter was 24.27±4.50 nm and ≈ 25 nm. In turn, “PpIX-GGGAAK-EAIPMSIPPEVK [NFTP-NPs, nanoparticles of the non-fibrillar transformable control peptide NFTP]” came in with a diameter of 26.13±3.23 nm.

The values are drawn from PMC12767106, “In Situ Assembly of Transformable Monopeptide on Activated Neutrophils Attenuates NETs‐Induced Hepatocellular Carcinoma Metastasis by Disrupting NE Nuclear Translocation” (Advanced Science, 2025).
